{"source": "paper PMC3534310", "about": "“Peptide-Modulated Activity Enhancement of Acidic Protease Cathepsin E at Neutral pH” (International Journal of Peptides, 2012)", "key": {"cathepsin E [1]": {"molecular_target": "T1, cathepsin E (Rattus norvegicus, UniProt P16228)", "T1 construct": "Cathepsin E was isolated from rat spleens as previously described; from tissue; host or cells: rat spleen", "T1 sequence (P16228 59-398)": "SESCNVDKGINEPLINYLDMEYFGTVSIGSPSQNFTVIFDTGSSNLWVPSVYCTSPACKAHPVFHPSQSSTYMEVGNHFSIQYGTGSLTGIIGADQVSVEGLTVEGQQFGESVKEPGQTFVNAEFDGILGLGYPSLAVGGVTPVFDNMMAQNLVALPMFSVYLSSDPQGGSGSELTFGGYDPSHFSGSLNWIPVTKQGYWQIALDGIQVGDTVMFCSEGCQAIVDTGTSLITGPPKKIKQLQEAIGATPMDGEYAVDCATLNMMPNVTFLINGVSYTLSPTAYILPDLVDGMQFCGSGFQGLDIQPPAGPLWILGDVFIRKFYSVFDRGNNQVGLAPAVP", "assay": "Cathepsin E protease activity assay (fluorogenic substrate, neutral pH)", "assay_type": "biochemical", "conditions": "20 nM cathepsin E + 20 nM peptide; for Activity (%), value in parentheses: Table 2, value in parentheses", "method": "(§1) Cathepsin E was isolated from rat spleens as previously described. The fluorogenic substrate for cathepsin E at neutral pH (pH 7.4) was the same as previously reported. The fluorogenic substrate (10 mM) was prepared by dissolving in 100% DMSO and diluting in reaction buffer immediately before use.\nActivation of cathepsin E by the selected peptides was determined as previously described. The selected peptides were prepared by in vitro translation or chemical synthesis. A solution containing 20 nM cathepsin E was pre incubated with 20 nM of selected peptides in Selection buffer (50 mM Tris-HCl, 100 mM NaCl, pH 7.4) at 25°C for 10 min. Next, the fluorogenic substrate was added (5 μM) and the mixture was incubated at 37°C for 1 h for the enzyme reaction. The fluorescent reaction product was monitored at 440 nm (excitation at 340 nm) using Infinite 200 (TECAN, Japan). The percent of cathepsin E activation (A) was calculated by: (1) A = 100×(Sf−Bf)/(Cf−Bf) [% activation], where S f was the fluorescence intensity of the cathepsin E reaction in the presence of a selected peptide, C f was the fluorescence intensity of the control in the absence of a selected peptide, and B f was background fluorescence of the solution containing the fluorogenic substrate only."}, "[2]": {"test_system": "caspase-3/7 activity in HeLa cells", "assay": "Apo-ONE Homogeneous Caspase-3/7 assay in HeLa cells", "assay_type": "cell-based", "conditions": "for Caspase-3/7 activity: three independent experiments", "method": "HeLa cells were used for an in vitro cell-based bioassay. Approximately 10,000 HeLa cells were seeded into the wells of a 96-well culture plate (Corning, USA) containing 100 uL of DMEM medium supplemented with 10% FBS and 2% penicillin-streptomycin and incubated overnight at 37°C under 5% CO2. […] After incubation, viable cells were determined with a Cell Counting Kit-F (Dojindo Molecular Technologies, Japan) according to the manufacturer's protocol. Viable cells were identified by their fluorescent emissions intensity using an Infinite 200 (TECAN, Japan) with excitation at 490 nm and emission at 515 nm. To detect apoptotic cells, cells were treated with Annexin V-Cy3 (BioVision, USA) following the manufacturer's protocol. Apoptotic cells were detected by their fluorescent emissions with excitation at 543 nm and emission at 570 nm. To detect caspase-3/7 activity induced by cathepsin E, an Apo-ONE Homogeneous Caspase-3/7 Assay kit (Promega, USA) was used according to the manufacturer's protocol. Activity was detected by fluorescent emissions with excitation at 485 nm and emission at 530 nm. The cathepsin E and selected peptide concentrations used for apoptosis and caspase assays were the same as those used for cell viability assays."}, "cathepsin E [3]": {"molecular_target": "T1, cathepsin E", "assay": "Affinity determination by SPR (Biacore2000)", "assay_type": "binding", "conditions": "cathepsin E immobilized on CM5 chip, peptide 10-40 nM, running buffer pH 7.4, 1:1 Langmuir fit", "method": "as §1\nThe dissociation constant (K d) of each selected peptide with cathepsin E was determined by the SPR method using a Biacore2000 (GE Healthcare, UK). Cathepsin E was immobilized on a CM5 Biacore sensor chip (GE Healthcare, UK) by the general amine coupling method. A small quantity of acetate buffer (50 mM sodium acetate, 100 mM NaCl, pH 4.5) containing cathepsin E (150 μg/mL) was injected into the flow cell for the sample lane. The reference lane was prepared similarly but without cathepsin E. Different concentrations (10, 20, 30, and 40 nM) of the selected peptide candidates, T4 and T11 were injected into both lanes at a flow rate of 20 ul/min to measure the interaction between cathepsin E and each peptide candidate. For all experiments, a neutral pH buffer (50 mM Tris-HCl, 100 mM NaCl, pH 7.4) was used as the running buffer and a solution of 50 mM NaOH was used to remove the peptides. The resulting sensorgram curves were fit to a 1 : 1 Langmuir binding model, and the K d values were calculated using BIA evaluation software (GE Healthcare, UK)."}, "HeLa cells": {"test_system": "HeLa cells", "assay": "HeLa cell death assay (Cell Counting Kit-F viability, Annexin V-Cy3 apoptosis)", "assay_type": "cell-based", "method": "HeLa cells were used for an in vitro cell-based bioassay. Approximately 10,000 HeLa cells were seeded into the wells of a 96-well culture plate (Corning, USA) containing 100 uL of DMEM medium supplemented with 10% FBS and 2% penicillin-streptomycin and incubated overnight at 37°C under 5% CO2. The cells were treated with cathepsin E (77 nM) alone or together with two different concentrations (770 nM, 7.7 μM) of the selected peptide T11 in 100 μL of serum-free Opti-MEM at 37°C for 20 h. After incubation, viable cells were determined with a Cell Counting Kit-F (Dojindo Molecular Technologies, Japan) according to the manufacturer's protocol. Viable cells were identified by their fluorescent emissions intensity using an Infinite 200 (TECAN, Japan) with excitation at 490 nm and emission at 515 nm. To detect apoptotic cells, cells were treated with Annexin V-Cy3 (BioVision, USA) following the manufacturer's protocol. Apoptotic cells were detected by their fluorescent emissions with excitation at 543 nm and emission at 570 nm. To detect caspase-3/7 activity induced by cathepsin E, an Apo-ONE Homogeneous Caspase-3/7 Assay kit (Promega, USA) was used according to the manufacturer's protocol. Activity was detected by fluorescent emissions with excitation at 485 nm and emission at 530 nm. […]"}, "peptide T4": {"molecular_target": "T2, peptide T4", "T2 chain": "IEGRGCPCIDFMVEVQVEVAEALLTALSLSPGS", "assay": "SPR"}, "[4]": {"conditions": "Table 1, cathepsin E activity alone = 100%, pH 7.4, pre-incubation 25°C 10 min, 5 μM substrate, 37°C 1 h, peptide by in vitro translation (italics) or chemical synthesis"}, "[5]": {"conditions": "pH 7.4, 37°C 1 h, peptide by in vitro translation (italic) or chemical synthesis"}, "[6]": {"conditions": "Table 2, value outside parentheses, pH 7.4, 37°C 1 h, peptide by in vitro translation (italic) or chemical synthesis"}}, "note": "Peptide text beside a SMILES is read from it.", "data": [{"molecule": "GSPCIGII [Peptide S2]", "values": [{"measurement": "Activity (%)", "setting": "cathepsin E [1]; [4]", "result": 133, "unit": "%"}]}, {"molecule": "IEGRLLSGGAGACSVRTVDDSFDCG [Peptide T11, paired peptide selected from the third library; chemically synthesized, more than 95% purity]", "values": [{"measurement": "Caspase-3/7 activity", "setting": "[2]; 77 nM cathepsin E + 7.7 μM peptide T11, 24 h", "result": 188, "unit": "%"}, {"measurement": "Caspase-3/7 activation", "setting": "[2]; T11 added without cathepsin E", "result": "not observed"}, {"measurement": "Activity (%), value in parentheses", "setting": "cathepsin E [1]; [5]", "result": 138, "unit": "%"}, {"measurement": "dissociation constant (Kd) with cathepsin E", "setting": "cathepsin E [3]", "result": "too weak to be determined"}, {"measurement": "percentage of dying cells", "setting": "HeLa cells; 77 nM cathepsin E with T11 (770 nM, 7.7 μM) versus without T11, 20 h (Figures 3a, 3b)", "result": "significantly higher"}, {"measurement": "effect on cells", "setting": "HeLa cells; peptide alone (without cathepsin E)", "result": "no effect"}]}, {"molecule": "SGIKVGCDPPSCG [Peptide S9]", "values": [{"measurement": "Activity (%)", "setting": "cathepsin E [1]; [4]", "result": 140, "unit": "%"}]}, {"molecule": "CC[C@H](C)[C@H](N)C(=O)N[C@@H](CCC(=O)O)C(=O)NCC(=O)N[C@@H](CCCNC(=N)N)C(=O)NCC(=O)N[C@@H](CS)C(=O)N1CCC[C@H]1C(=O)N[C@@H](CS)C(=O)N[C@H](C(=O)N[C@@H](CC(=O)O)C(=O)N[C@@H](Cc1ccccc1)C(=O)N[C@@H](CCSC)C(=O)N[C@H](C(=O)N[C@@H](CCC(=O)O)C(=O)N[C@H](C(=O)N[C@@H](CCC(N)=O)C(=O)N[C@H](C(=O)N[C@@H](CCC(=O)O)C(=O)N[C@H](C(=O)N[C@@H](C)C(=O)N[C@@H](CCC(=O)O)C(=O)N[C@@H](C)C(=O)N[C@@H](CC(C)C)C(=O)N[C@@H](CC(C)C)C(=O)N[C@H](C(=O)N[C@@H](C)C(=O)N[C@@H](CC(C)C)C(=O)N[C@@H](CO)C(=O)N[C@@H](CC(C)C)C(=O)N[C@@H](CO)C(=O)N1CCC[C@H]1C(=O)NCC(=O)N[C@@H](CO)C(=O)O)[C@@H](C)O)C(C)C)C(C)C)C(C)C)C(C)C)[C@@H](C)CC", "note": "[Peptide T4] (H-IEGRGCPCIDFMVEVQVEVAEALLTALSLSPGS-OH)", "values": [{"measurement": "Activity (%), value in parentheses", "setting": "cathepsin E [1]; [5]", "result": 122, "unit": "%"}, {"measurement": "Kd", "setting": "cathepsin E [3]; read-out: dissociation constant (Kd) with cathepsin E", "result": 2, "unit": "nM"}]}, {"molecule": "SYKDSCIGGRGSGGGPGGIPGRIGYIG [Peptide T7, peptide selected from the paired peptide (third) library]", "values": [{"measurement": "Activity (%)", "setting": "cathepsin E [1]; [6]", "result": 111, "unit": "%"}]}, {"molecule": "SPIISHIVGCDPPSCG [Peptide S7]", "values": [{"measurement": "Activity (%)", "setting": "cathepsin E [1]; [4]", "result": 160, "unit": "%"}]}, {"molecule": "PGIKIIIIG [Peptide S4]", "values": [{"measurement": "Activity (%)", "setting": "cathepsin E [1]; [4]", "result": 151, "unit": "%"}]}, {"molecule": "IEGRVGCDFMYVG [Peptide S1]", "values": [{"measurement": "Activity (%)", "setting": "cathepsin E [1]; [4]", "result": 130, "unit": "%"}]}, {"molecule": "SDDKSTTLVEVQVEVAEELWRHYHYLLHG [Peptide T6, peptide selected from the paired peptide (third) library]", "values": [{"measurement": "Activity (%)", "setting": "cathepsin E [1]; [6]", "result": 118, "unit": "%"}]}, {"molecule": "IGCEERSFPNIIIIIG [Peptide S8]", "values": [{"measurement": "Activity (%)", "setting": "cathepsin E [1]; [4]", "result": 168, "unit": "%"}]}, {"molecule": "PGIKPPPCIIIIG [Peptide S10]", "values": [{"measurement": "Activity (%)", "setting": "cathepsin E [1]; [4]", "result": 145, "unit": "%"}]}, {"molecule": "Cathepsin E (protein) SESCNVDKGINEPLINYLDMEYFGTVSIGSPSQNFTVIFDTGSSNLWVPSVYCTSPACKAHPVFHPSQSSTYMEVGNHFSIQYGTGSLTGIIGADQVSVEGLTVEGQQFGESVKEPGQTFVNAEFDGILGLGYPSLAVGGVTPVFDNMMAQNLVALPMFSVYLSSDPQGGSGSELTFGGYDPSHFSGSLNWIPVTKQGYWQIALDGIQVGDTVMFCSEGCQAIVDTGTSLITGPPKKIKQLQEAIGATPMDGEYAVDCATLNMMPNVTFLINGVSYTLSPTAYILPDLVDGMQFCGSGFQGLDIQPPAGPLWILGDVFIRKFYSVFDRGNNQVGLAPAVP", "values": [{"measurement": "Caspase-3/7 activity", "setting": "[2]; 77 nM cathepsin E alone, 24 h", "result": 155, "unit": "%"}, {"measurement": "Kd", "setting": "peptide T4", "result": 2, "unit": "nM"}]}]}
